# Results from patent publication US11498903B2 (BRISTOL-MYERS SQUIBB COMPANY, priority 2017, dated 2022).
# Target: T1, human APJ receptor (Homo sapiens, UniProt P35414)
# T1 construct: expressed in transfected cells
# T1 sequence (P35414 1-380): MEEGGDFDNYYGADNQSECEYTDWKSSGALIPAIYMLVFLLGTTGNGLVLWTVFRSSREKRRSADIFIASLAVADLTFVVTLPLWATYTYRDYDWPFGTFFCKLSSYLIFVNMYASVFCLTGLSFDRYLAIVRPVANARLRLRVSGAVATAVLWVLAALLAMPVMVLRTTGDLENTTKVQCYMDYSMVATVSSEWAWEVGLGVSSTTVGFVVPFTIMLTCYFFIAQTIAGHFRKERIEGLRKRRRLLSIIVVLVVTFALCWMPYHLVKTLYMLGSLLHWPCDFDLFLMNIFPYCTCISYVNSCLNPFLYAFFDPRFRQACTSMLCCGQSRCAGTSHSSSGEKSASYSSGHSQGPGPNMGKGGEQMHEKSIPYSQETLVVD
# Assay: Intracellular cAMP accumulation assay (APJ hcAMP, HTRF)
# Assay type: cell-based
# Conditions: Table 1; HEK293 cells stably expressing human APJ receptor; inhibition of forskolin-mediated cAMP production; read-out: APJ hcAMP EC50
# Experimental: Intracellular cAMP Accumulation Assay
# HEK293 cells stably expressing human APJ receptor were used to assess the activity of compounds. Cultured cells were detached and resuspended in the cAMP Homogeneous Time-Resolved Fluorescence (HTRF) assay buffer (Cisbio cat; #62AM4PEJ). The assay was performed in 384-well assay plates (Perkin-Elmer; cat #6008289) according to assay protocol provided by the manufacturer. Serial dilutions of a compound together with assay buffer containing […] IBMX and 2 μM forskolin were added to each well containing 5,000 cells and incubated for 30 minutes at room temperature. Subsequently, cAMP D2 reagent was added in the lysis buffer followed by the EuK antibody (Cisbio; cat #62AM4PEJ) and incubated for 60 min. The fluorescence emission ratio was measured using fluorometer. The intracellular cAMP concentrations (compound-stimulated inhibition of forskolin-mediated cAMP production) were calculated by extrapolation from a standard curve using known cAMP concentrations. The EC50 values were obtained by fitting the data to a sigmoidal concentration-response curve with variable slope. The maximal achievable inhibition of forskolin-induced cAMP levels (Ymax) for each compound was expressed as relative percentage of inhibition attained using pyroglutamated apelin-13 ((Pyrl)apelin-13) peptide, which was set to 100%.
# The exemplified Examples disclosed below were tested in the APJ in vitro assays described above and were found having human APJ cyclic AMP (hcAMP) activity. Table 1 lists hcAMP EC50 values measured for the following examples. Ranges are as followε: A=0.0-10 nM; B=10.01-100 nM; C=101-500 nM.
row,EC50 [µM],SMILES
1,< 0.01,"CCC[C@@H](NC(=O)c1ccc(-c2c(Cl)cccc2-c2nc3cc(OC)ccc3[nH]2)c(C(=O)O)c1)c1ccccc1 (atropisomer, axis not shown) [Example 132, (S)-2′-chloro-6′-(5-methoxy-1H-1,3-benzodiazol-2-yl)-4-{[(1R)-1-phenylbutyl]carbamoyl}-[1,1′-biphenyl]-2-carboxylic acid]"
2,< 0.01,"CCC[C@@H](NC(=O)c1ccc(-c2c(Cl)cccc2-c2nc3cc(OC(C)=O)ccc3[nH]2)c(C(=O)O)c1)c1ccccc1 (atropisomer, axis not shown) [Example 134, (S)-2′-[5-(acetyloxy)-1H-1,3-benzodiazol-2-yl]-6′-chloro-4-{[(1R)-1-phenylbutyl]carbamoyl}-[1,1′-biphenyl]-2-carboxylic acid]"

# Same assay, conditions: Table 3; HEK293 cells stably expressing human APJ receptor; read-out: APJ cAMP Human EC50
row,SMILES,EC50 [µM]
1,"CCC[C@@H](NC(=O)c1ccc(-c2c(Cl)cccc2-c2nc(C)c(-c3ccccc3)[nH]2)c(C(=O)O)c1)c1ccccc1 (atropisomer, axis not shown) [Example 106, (S)-2′-chloro-6′-(4-methyl-5-phenyl-1H-imidazol-2-yl)-4-{[(1R)-1-phenylbutyl]carbamoyl}-[1,1′-biphenyl]-2-carboxylic acid]",0.01 to 0.1
2,"CCC[C@@H](NC(=O)c1ccc(-c2c(Cl)cccc2-c2ncc(-c3ccncc3)[nH]2)c(C(=O)O)c1)c1ccccc1 (atropisomer, axis not shown) [Example 107, (S)-2′-chloro-4-{[(1R)-1-phenylbutyl]carbamoyl}-6′-[5-(pyridin-4-yl)-1H-imidazol-2-yl]-[1,1′-biphenyl]-2-carboxylic acid]",0.01 to 0.1
3,"CCC[C@@H](NC(=O)c1ccc(-c2c(Cl)cccc2-c2nc3cc(Cl)c(F)cc3[nH]2)c(C(=O)O)c1)c1ccccc1 (atropisomer, axis not shown) [Example 108, (S)-2′-chloro-6′-(5-chloro-6-fluoro-1H-1,3-benzodiazol-2-yl)-4-{[(1R)-1-phenylbutyl]carbamoyl}-[1,1′-biphenyl]-2-carboxylic acid]",< 0.01
4,"CCC[C@@H](NC(=O)c1ccc(-c2c(Cl)cccc2-c2nc3cc(O)ccc3[nH]2)c(C(=O)OC)c1)c1ccccc1 (atropisomer, axis not shown) [Example 128, (S)-methyl 2′-chloro-6′-(5-hydroxy-1H-1,3-benzodiazol-2-yl)-4-{[(1R)-1-phenylbutyl]carbamoyl}-[1,1′-biphenyl]-2-carboxylate]",0.01 to 0.1
5,"CCC[C@@H](NC(=O)c1ccc(-c2c(Cl)cccc2-c2nc3ccccc3[nH]2)c(C(=O)O)c1)c1ccccc1 (atropisomer, axis not shown) [Example 141, (R)-2′-(1H-1,3-benzodiazol-2-yl)-6′-chloro-4-{[(1R)-1-phenylbutyl]carbamoyl}-[1,1′-biphenyl]-2-carboxylic acid]",0.01 to 0.1

# Second part, the compound after the results:
row,EC50 [µM],SMILES
1,< 0.01,"CCC[C@@H](NC(=O)c1ccc(-c2c(Cl)cccc2-c2nc3cc(OC)ccc3[nH]2)c(C(=O)O)c1)c1ccccc1 (atropisomer, axis not shown) [Example 132, (S)-2′-chloro-6′-(5-methoxy-1H-1,3-benzodiazol-2-yl)-4-{[(1R)-1-phenylbutyl]carbamoyl}-[1,1′-biphenyl]-2-carboxylic acid]"
2,< 0.01,"CCC[C@@H](NC(=O)c1ccc(-c2c(Cl)cccc2-c2nc3cnccc3[nH]2)c(C(=O)O)c1)c1ccccc1 (atropisomer, axis not shown) [Example 133, (S)-2′-chloro-6′-{1H-imidazo[4,5-c]pyridin-2-yl}-4-{[(1R)-1-phenylbutyl]carbamoyl}-[1,1′-biphenyl]-2-carboxylic acid]"
3,< 0.01,"CCC[C@@H](NC(=O)c1ccc(-c2c(Cl)cccc2-c2nc3cc(OC(C)=O)ccc3[nH]2)c(C(=O)O)c1)c1ccccc1 (atropisomer, axis not shown) [Example 134, (S)-2′-[5-(acetyloxy)-1H-1,3-benzodiazol-2-yl]-6′-chloro-4-{[(1R)-1-phenylbutyl]carbamoyl}-[1,1′-biphenyl]-2-carboxylic acid]"
4,0.01 to 0.1,"CCC[C@@H](NC(=O)c1ccc(-c2c(Cl)cccc2-c2nc3cc(O)ccc3[nH]2)c(C(=O)O)c1)c1ccccc1 (atropisomer, axis not shown) [Example 135, (S)-2′-chloro-6′-(5-hydroxy-1H-1,3-benzodiazol-2-yl)-4-{[(1R)-1-phenylbutyl]carbamoyl}-[1,1′-biphenyl]-2-carboxylic acid]"
5,0.101 to 0.5,"CCC[C@@H](NC(=O)c1ccc(-c2c(Cl)cccc2-c2nc3cc(OC(C)=O)ccc3[nH]2)c(C(=O)O)c1)c1ccccc1 (atropisomer, axis not shown) [Example 136, (S)-2′-[5-(acetyloxy)-1H-1,3-benzodiazol-2-yl]-6′-chloro-4-{[(1R)-1-phenylbutyl]carbamoyl}-[1,1′-biphenyl]-2-carboxylic acid]"
